Assays:
[1] = molecular target: T1, FAK (Homo sapiens, UniProt Q05397); test: P397Y-FAK Inhibition MSD Platform Cellular Biomarker Assay; format: cell-based; details: MDA-231-LNA cells, treated for 1 hour; pFAK-397 levels
T1 construct: endogenous in cells; host or cells: MDA-231-LNA
Description: 96-well plates (cat#MA6000, Meso Scale Discovery) are coated with 30 μL/well of mouse monoclonal FAK antibody [63D5] (cat#ab72140, Abcam) pre-diluted in PBS to a concentration of 1 mg/mL. The plates are sealed with adhesive film and incubated for 16 hours at 4° C. The antibody is then flicked out of the plates and 150 μL of 3% [w/v] Blocker A (cat#R93AA-1, Meso Scale Discovery) is added. The plates are resealed with adhesive film and incubated at room temperature on a shaker set at medium speed for 2 hours. The plates are then washed three times with a solution containing 50 mM Tris-HCl pH 7.5, 0.15 M NaCl and 0.02% Tween-20, before cell lysate addition described below.
On the day prior to compound treatment, 200 μL media containing 20,000 cells is seeded into all wells of white, clear-bottom, TC treated, pclear, 96-well microtitre plates (cat#655098, Greiner Bio-One), and the plates are incubated at 37° C. and 5% CO2 for 36 hours. 1 μL/well of compound is then added from dilution series prepared in DMSO. Negative control wells receive the same volume of DMSO without compounds, and positive control wells receive 2 μM of a control compound in the same volume of DMSO. Cells are treated for 1 hour at 37° C. and 5% CO2. The media/compounds are then flicked off and 55 μL/well of ice-cold complete lysis buffer is added. […] Plates are incubated on ice for 30 minutes, with 30 seconds high speed plate shaking every 5 minutes. 40 μL/well of cell lysate is transferred to the coated, blocked and washed 96-well microtitre plates described above. The 96-well plates are sealed with adhesive film and incubated for 16 hours at 4° C. The plates are then washed three times with a solution containing 50 mM Tris-HCl pH 7.5, 0.15 M NaCl and 0.02% Tween-20 and tapped dry. […] Plates are then washed three times with a solution containing 50 mM Tris-HCl pH 7.5, 0.15 M NaCl and 0.02% Tween-20 and tapped dry. 150 μL/well of Read Buffer T+Surfactant (cat#R92TC-1, Meso Scale Discovery) is then added, and pFAK-397 levels quantified using a Meso Scale Discovery SECTOR Imager 6000 instrument.

[2] = molecular target: T2, VEGFR2 (Homo sapiens, UniProt P35968); test: VEGFR2 Phospho ELISA Assay; format: cell-based; details: HUVEC, treated for 1 hour, VEGF stimulated; phospho VEGFR2 relative to Total VEGFR2
T2 construct: host or cells: HUVEC
Description: Adult human umbilical vein endothelial cells (HUVEC) (Cat# CC-2519, Lonza) were seeded into clear-bottom, TC treated 12 well plates (Cat #665180, Greiner Bio-One) in EGM-2 (Cat# CC-3162, Lonza) at 180,000 cells/well (volume 1 mL), and the plates incubated at 37° C. and 5% CO2 for 6 hours.
96 well Maxisorp immuno plates (Cat #439454, Nunc) were coated with 100 μL of Total VEGFR2 capture antibody (Part #841434, Human Total VEGFR2/FLT4 ELISA Kit, Cat # DYC1780, R&D Systems), or Phospho VEGFR2 Capture antibody (Part #841419, Human Phospho VEGFR2/FLT4 ELISA Kit, Cat# DYC1766, R&D Systems). The plates were covered and incubated at room temperature overnight.
The coating antibody was flicked out and the plates washed three times with Wash Buffer (Phosphate buffered saline (137 mM NaCl, 2.7 nM KCl, 8.1 nM Na2HPO4, 1.5 mL KH2PO4, pH 7.2-7.4), 0.05% Tween 20). 300 μL of Blocking buffer (1% v/v BSA (Cat# A8412, Sigma) in PBS) was then added to wells and plate incubated for 2 hours at room temperature. Blocking solution is flicked out and plates washed three times and tapped dry.
Compound dilution series were prepared in EBM-2 (Cat # CC-3156, Lonza)+0.1% BSA (Cat# A8412, Sigma) with constant 0.1% DMSO concentration. 427.5 μL of sample or vehicle control was added to the cell monolayers. Cells are treated for 1 hour at 37° C. and 5% CO2. 50 ng/mL Recombinant human VEGF (Cat #293-VC, R & D Systems) added to wells and plates incubated for an additional 10 minutes at 37° C. and 5% CO2.
(§1) The media and compounds were removed and the cell monolayer washed once in Dulbecco's Phosphate Buffered Saline (Cat #21600-044, Invitrogen). 130 μL of Lysis buffer added to wells and cell lysate harvested and transferred to tubes and stored on ice. Complete lysis buffer was prepared by adding 10 μL Protease Inhibitor Cocktail (Cat # P8340, Sigma-Aldrich), 10 μL PMSF (Phenylmethanesulfonyl fluoride, Cat # P7626, Sigma-Aldrich, prepared as 500 mM DMSO stock) per 1 mL of Phosphosafe™ Extraction Reagent (Cat #71296, Merck).
The plates were then washed three times in wash buffer as described above and tapped dry.
For detection of Total VEGFR2 100 μL of Detection antibody (Total VEGFR2 Detection Antibody Part#841435 in Total VEGFR2 kit) diluted in IC Diluent #14 (20 mM Tris, 137 mM CaCl2, 0.05% Tween20, 0.1% BSA) was added to wells and the plate incubated for 2 hours at room temperature. The plate was then washed three times in wash buffer and tapped dry. 100 μL of streptavidin-HPR diluted in IC diluent #14 Streptavidin-HRP, Part #890803 in Total VEGFR2 kit) was added to wells and incubated at room temperature for 20 minutes followed by washing as described above. 100 μL Substrate solution (3,3′,5,5′-Tetramethylbenzidine (TMB) Liquid Substrate System for ELISA, Cat # T0440, Sigma-Aldrich) was added and the plate incubated for 20 minutes in the dark at room temperature followed by the addition of 50 μL stop solution (2 M H2SO4).
Total VEGFR2 levels were quantified using a Multiskan Ascent plate reader and Ascent software fitted with 450 nm filter.
For detection of Phospho VEGFR2, 100 μL of Detection antibody (Anti-Phospho-Tyrosine-HRP Detection Antibody, Part #841403 in Phospho VEGFR2 kit) was diluted in IC Diluent 14 (20 mM Tris, 137 mM CaCl2, 0.05% Tween20, 0.1% BSA), was added to the wells and the plate incubated for 2 hours at room temperature. The plate was then washed three times in wash buffer as described above and tapped dry. 100 μL Substrate solution (3,3′,5,5′-Tetramethylbenzidine (TMB) Liquid Substrate System for ELISA, Cat # T0440, Sigma-Aldrich) was added and the plate incubated for 20 minutes in the dark at room temperature followed by the addition of 50 μL stop solution (2 M H2SO4).
Phospho VEGFR2 levels were quantified using a Multiscan ascent plate reader and ascent software fitted with 450 nm filter.
IC50 values are determined by first calculating the level of phospho VEGFR2 relative to Total VEGFR2 according to the following formula:

[3] = molecular target: VEGFR3 cytoplasmic domain (Homo sapiens, UniProt P35916); test: VEGFR3 Biochemical Assay (AlphaScreen); details: GST-fusion enzyme, 500 μM ATP, 90 minutes at 30 degree Celsius (modified form in some cases: Hexa-His-fusion enzyme, 1 μM ATP); read-out: IC50
[4] = molecular target: VEGFR3 (Homo sapiens, UniProt P35916); test: VEGFR3 Phospho ELISA Assay; format: cell-based; details: HMVEC-dLyAD cells, treated for 1 hour, VEGFC stimulated; phospho VEGFR3 relative to Total VEGFR3
Sequence of VEGFR3 (P35916 25-1363): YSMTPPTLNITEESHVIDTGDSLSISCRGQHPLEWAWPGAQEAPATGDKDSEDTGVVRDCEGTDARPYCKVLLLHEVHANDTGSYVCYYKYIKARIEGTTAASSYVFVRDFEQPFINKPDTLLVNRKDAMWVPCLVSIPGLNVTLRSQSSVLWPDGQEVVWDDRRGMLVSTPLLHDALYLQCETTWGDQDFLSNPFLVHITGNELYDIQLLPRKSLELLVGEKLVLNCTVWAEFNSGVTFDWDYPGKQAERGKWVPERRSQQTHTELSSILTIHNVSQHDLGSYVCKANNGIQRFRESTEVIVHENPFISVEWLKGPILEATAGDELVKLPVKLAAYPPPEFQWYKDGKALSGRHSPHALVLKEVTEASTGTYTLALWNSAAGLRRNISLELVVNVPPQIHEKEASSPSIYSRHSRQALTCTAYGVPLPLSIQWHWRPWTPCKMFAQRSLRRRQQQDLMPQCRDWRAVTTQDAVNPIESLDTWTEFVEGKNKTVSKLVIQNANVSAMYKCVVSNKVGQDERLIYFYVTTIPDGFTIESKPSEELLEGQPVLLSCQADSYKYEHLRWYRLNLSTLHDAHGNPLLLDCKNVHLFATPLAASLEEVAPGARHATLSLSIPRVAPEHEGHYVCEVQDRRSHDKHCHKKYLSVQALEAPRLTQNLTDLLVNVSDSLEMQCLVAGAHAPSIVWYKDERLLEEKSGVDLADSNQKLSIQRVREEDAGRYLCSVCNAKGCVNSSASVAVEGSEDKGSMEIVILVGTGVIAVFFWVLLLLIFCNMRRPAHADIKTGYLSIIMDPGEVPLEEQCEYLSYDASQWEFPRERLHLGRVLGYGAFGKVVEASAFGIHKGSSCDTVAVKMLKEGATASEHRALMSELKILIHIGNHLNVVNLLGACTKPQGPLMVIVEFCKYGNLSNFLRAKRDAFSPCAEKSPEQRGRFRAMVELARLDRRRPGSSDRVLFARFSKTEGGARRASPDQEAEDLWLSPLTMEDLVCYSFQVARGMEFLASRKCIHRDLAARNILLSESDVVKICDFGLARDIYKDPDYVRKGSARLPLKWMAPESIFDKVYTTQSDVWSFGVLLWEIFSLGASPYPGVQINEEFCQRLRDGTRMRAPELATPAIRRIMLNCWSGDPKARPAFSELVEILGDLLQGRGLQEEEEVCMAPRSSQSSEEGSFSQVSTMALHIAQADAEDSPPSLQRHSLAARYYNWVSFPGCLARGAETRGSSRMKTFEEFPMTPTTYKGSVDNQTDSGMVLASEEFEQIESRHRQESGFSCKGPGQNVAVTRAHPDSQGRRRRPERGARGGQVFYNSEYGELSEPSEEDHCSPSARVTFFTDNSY
Description: Adult human dermal lymphatic microvascular endothelial cells (HMVEC-dLyAD) (Cat# CC-2810, Lonza) were seeded into clear-bottom, TC treated 12 well plates (Cat #665180, Greiner Bio-One) in EGM-2MV (Cat# CC-3202, Lonza) at 180,000 cells/well (volume 1 mL), and the plates incubated at 37° C. and 5% CO2 for 6 hours.
96 well Maxisorp immuno plates (Cat #439454, Nunc) were coated with 100 μL of Total VEGFR3 capture antibody (Part #841888, Human Total VEGFR3/FLT4 ELISA Kit, Cat # DYC3491, R&D Systems), or Phospho VEGFR3 Capture antibody (Part #841885, Human Phospho VEGFR3/FLT4 ELISA Kit, Cat# DYC2724, R&D Systems). The plates were covered and incubated at room temperature overnight.
The coating antibody was flicked out and the plates washed three times with Wash Buffer (Phosphate buffered saline (137 mM NaCl, 2.7 nM KCl, 8.1 nM Na2HPO4, 1.5 mL KH2PO4, pH 7.2-7.4), 0.05% Tween 20). 300 μL of blocking buffer (5% v/v Tween 20, 5% w/v sucrose in PBS) was then added to wells and plate incubated for 2 hours at room temperature. Blocking solution is flicked out and plates washed three times and tapped dry.
Compound dilution series were prepared in EBM-2 (Cat # CC-3156, Lonza)+0.1% BSA (Cat# A8412, Sigma) with constant 0.1% DMSO concentration. 439 μL of sample or vehicle control was added to the cell monolayers. Cells are treated for 1 hour at 37° C. and 5% CO2. 250 ng/mL Recombinant human VEGFC (Cat #2179-VC, R & D Systems) added to wells and plates incubated for an additional 10 minutes at 37° C. and 5% CO2.
as §1
The harvested samples were then diluted 1:2 in IC Diluent #18 (5% Tween 20/PBS) and 100 μL transferred to the Total and Phospho VEGFR3 coated, blocked and washed 96 well plates and incubated for 2 hours at room temperature. The plates were then washed three times in wash buffer as described above and tapped dry. For detection of Total VEGFR3 100 μL of Detection antibody (Total VEGFR3 Detection Antibody Part#841888 in Total VEGFR3 kit) diluted in IC Diluent #1 (1% w/v BSA (Cat # A7906, Sigma-Aldrich)/PBS) was added to wells and the plate incubated for 2 hours at room temperature. The plate was then washed three times in wash buffer and tapped dry. 100 μL of streptavidin-HPR diluted in IC diluent #1 Streptavidin-HRP, Part #890803 in Total VEGFR3 kit) was added to wells and incubated at room temperature for 20 minutes followed by washing as described above. 100 μL Substrate solution (3,3′,5,5′-Tetramethylbenzidine (TMB) Liquid Substrate System for ELISA, Cat # T0440, Sigma-Aldrich) was added and the plate incubated for 20 minutes in the dark at room temperature followed by the addition of 50 μL stop solution (2 M H2SO4).
Total VEGFR3 levels were quantified using a Multiskan Ascent plate reader and Ascent software fitted with 450 nm filter.
For detection of Phospho VEGFR3, 100 μL of Detection antibody (Anti-Phospho-Tyrosine-HRP Detection Antibody, Part #841403 in Phospho VEGFR3 kit) was diluted in IC Diluent #1 (1% w/v BSA/PBS), added to the wells and the plate incubated for 2 hours at room temperature. The plate was then washed three times in wash buffer as described above and tapped dry. 100 μL Substrate solution (3,3′,5,5′-Tetramethylbenzidine (TMB) Liquid Substrate System for ELISA, Cat # T0440, Sigma-Aldrich) was added and the plate incubated for 20 minutes in the dark at room temperature followed by the addition of 50 μL stop solution (2 M H2SO4).

Sequence of VEGFR3 cytoplasmic domain (P35916 798-1298 isoform P35916-1): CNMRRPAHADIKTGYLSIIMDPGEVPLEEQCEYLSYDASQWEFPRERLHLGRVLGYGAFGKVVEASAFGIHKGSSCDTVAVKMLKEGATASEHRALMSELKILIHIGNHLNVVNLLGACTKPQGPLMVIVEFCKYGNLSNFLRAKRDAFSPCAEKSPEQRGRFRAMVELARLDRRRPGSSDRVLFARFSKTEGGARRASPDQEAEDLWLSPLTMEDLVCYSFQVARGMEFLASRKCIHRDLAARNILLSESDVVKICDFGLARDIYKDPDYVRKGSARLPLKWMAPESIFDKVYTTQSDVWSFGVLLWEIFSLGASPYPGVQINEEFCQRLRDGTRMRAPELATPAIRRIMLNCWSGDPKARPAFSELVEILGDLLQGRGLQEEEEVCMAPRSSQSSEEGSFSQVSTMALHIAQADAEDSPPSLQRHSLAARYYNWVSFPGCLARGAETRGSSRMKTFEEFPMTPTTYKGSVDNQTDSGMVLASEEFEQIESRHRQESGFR
T2 sequence (P35968 20-1356): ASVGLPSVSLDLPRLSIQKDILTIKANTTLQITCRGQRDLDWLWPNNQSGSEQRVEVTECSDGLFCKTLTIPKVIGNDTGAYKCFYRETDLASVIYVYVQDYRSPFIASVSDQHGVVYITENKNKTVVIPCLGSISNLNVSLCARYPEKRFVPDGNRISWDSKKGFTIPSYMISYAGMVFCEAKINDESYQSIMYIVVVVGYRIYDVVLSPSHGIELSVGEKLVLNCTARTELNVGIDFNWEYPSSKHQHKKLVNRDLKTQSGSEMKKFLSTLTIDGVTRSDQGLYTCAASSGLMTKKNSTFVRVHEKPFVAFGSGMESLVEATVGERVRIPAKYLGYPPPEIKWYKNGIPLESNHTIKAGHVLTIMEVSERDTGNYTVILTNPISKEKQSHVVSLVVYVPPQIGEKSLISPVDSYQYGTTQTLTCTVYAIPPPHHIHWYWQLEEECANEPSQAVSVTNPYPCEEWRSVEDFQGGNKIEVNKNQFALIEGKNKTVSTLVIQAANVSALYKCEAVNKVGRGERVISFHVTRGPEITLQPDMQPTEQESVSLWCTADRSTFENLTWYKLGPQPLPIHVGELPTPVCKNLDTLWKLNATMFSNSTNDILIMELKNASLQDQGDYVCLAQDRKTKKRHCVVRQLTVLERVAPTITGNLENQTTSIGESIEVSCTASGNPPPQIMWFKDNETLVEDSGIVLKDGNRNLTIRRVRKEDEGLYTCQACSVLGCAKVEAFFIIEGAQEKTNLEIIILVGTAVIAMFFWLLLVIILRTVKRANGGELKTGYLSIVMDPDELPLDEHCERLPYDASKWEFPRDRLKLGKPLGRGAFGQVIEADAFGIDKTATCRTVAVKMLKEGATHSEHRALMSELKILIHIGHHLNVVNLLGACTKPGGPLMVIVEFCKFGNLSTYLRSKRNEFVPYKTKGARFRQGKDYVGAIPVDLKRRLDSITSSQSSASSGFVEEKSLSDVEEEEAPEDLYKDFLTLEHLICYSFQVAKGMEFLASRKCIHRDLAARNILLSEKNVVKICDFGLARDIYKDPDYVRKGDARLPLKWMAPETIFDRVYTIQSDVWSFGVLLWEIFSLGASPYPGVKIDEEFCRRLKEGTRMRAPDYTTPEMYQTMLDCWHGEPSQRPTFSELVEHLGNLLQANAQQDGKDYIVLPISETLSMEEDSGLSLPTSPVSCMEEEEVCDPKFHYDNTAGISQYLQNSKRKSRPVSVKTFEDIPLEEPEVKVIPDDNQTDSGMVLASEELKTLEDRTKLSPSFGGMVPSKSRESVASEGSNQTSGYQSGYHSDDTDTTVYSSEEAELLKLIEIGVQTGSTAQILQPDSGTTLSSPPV
T1 sequence (Q05397 whole entry): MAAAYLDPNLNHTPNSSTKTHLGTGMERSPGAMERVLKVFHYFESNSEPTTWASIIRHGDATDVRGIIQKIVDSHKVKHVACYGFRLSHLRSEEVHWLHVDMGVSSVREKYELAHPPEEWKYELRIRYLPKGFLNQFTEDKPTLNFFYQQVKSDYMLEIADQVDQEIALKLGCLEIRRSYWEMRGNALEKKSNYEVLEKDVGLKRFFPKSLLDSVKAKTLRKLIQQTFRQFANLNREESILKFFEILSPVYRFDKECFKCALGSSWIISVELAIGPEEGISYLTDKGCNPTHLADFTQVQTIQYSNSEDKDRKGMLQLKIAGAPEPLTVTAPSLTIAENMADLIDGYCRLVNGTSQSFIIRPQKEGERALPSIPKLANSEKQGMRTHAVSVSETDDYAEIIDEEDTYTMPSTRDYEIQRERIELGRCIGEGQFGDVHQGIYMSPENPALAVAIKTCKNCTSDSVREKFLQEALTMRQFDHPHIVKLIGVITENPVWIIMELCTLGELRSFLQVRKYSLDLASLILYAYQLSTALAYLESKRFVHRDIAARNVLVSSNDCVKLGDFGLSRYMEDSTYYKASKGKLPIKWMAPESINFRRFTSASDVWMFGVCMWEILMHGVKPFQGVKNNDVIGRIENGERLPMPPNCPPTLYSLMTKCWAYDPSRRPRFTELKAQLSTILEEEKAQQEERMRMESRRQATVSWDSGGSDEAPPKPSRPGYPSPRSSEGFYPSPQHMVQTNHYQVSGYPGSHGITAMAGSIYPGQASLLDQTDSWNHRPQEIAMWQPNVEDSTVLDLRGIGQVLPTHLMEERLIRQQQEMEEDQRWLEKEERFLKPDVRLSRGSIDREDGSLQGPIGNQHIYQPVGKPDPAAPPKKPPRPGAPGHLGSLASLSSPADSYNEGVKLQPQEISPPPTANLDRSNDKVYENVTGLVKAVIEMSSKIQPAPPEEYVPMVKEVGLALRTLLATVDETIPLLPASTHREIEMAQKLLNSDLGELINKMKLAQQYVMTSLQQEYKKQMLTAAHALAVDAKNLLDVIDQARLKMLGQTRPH

SMILES	IC50 [1]	IC50 [2]	IC50 [3]	IC50 [4]
CCC(C(N)=O)c1ccccc1CCc1nc(Nc2ccc(C3CCNCC3)cc2)ncc1C(F)(F)F (racemic) [Compound 1, 2-(2-(2-(2-((4-(Piperidin-4-yl)phenyl)amino)-5-(trifluoromethyl)pyrimidin-4-yl)ethyl)phenyl)butanamide]	1180 nM	–	–	–
CC(C(N)=O)c1ccccc1CCc1nc(Nc2cnn(C3CCNCC3)c2)ncc1C(F)(F)F (racemic) [Compound 56, 2-(2-(2-(2-((1-(piperidin-4-yl)-1H-pyrazol-4-yl)amino)-5-(trifluoromethyl)pyrimidin-4-yl)ethyl)phenyl)propanamide]	517 nM	–	–	–
NC(=O)C1(c2ccccc2CCc2nc(Nc3ccc(C4CNC4)cc3)ncc2C(F)(F)F)CC1 [Compound 4, 1-(2-(2-(2-((4-(azetidin-3-yl)phenyl)amino)-5-(trifluoromethyl)pyrimidin-4-yl)ethyl)phenyl)cyclopropanecarboxamide]	> 2000 nM	2040 nM	–	–
NC(=O)C1(c2ccccc2CCc2nc(Nc3cnn(C4CCNCC4)c3)ncc2Cl)CC1 [Compound 17, 1-(2-(2-(5-Chloro-2-((1-(piperidin-4-yl)-1H-pyrazol-4-yl)amino)pyrimidin-4-yl)ethyl)phenyl)cyclopropanecarboxamide]	–	393 nM	9 nM	62 nM
CN1CCC(n2cc(Nc3ncc(Cl)c(CCc4ccccc4C4(C(N)=O)CC4)n3)cn2)CC1 [Compound 18, 1-(2-(2-(5-chloro-2-((1-(1-methylpiperidin-4-yl)-1H-pyrazol-4-yl)amino)pyrimidin-4-yl)ethyl)phenyl)cyclopropanecarboxamide]	–	21 nM	3 nM	5 nM
NC(=O)C1(c2ccccc2CCc2nc(Nc3cn[nH]c3)ncc2Cl)CC1 [Compound 19, 1-(2-(2-(2-(1H-Pyrazol-4-ylamino)-5-chloropyrimidin-4-yl)ethyl)phenyl)cyclopropanecarboxamide]	–	248 nM	3 nM	11 nM
NC(=O)C1(c2ccccc2CCc2nc(Nc3cnn(C4CCNC4)c3)ncc2Cl)CC1 (stereo not drawn) [Compound 20, 1-(2-(2-(5-Chloro-2-(1-(pyrrolidin-3-yl)-1H-pyrazol-4-ylamino)pyrimidin-4-yl)ethyl)phenyl)cyclopropanecarboxamide]	–	1760 nM	7 nM	38 nM
CN1CCC(n2cc(Nc3ncc(Cl)c(CCc4ccccc4C4(C(N)=O)CC4)n3)cn2)C1 (stereo not drawn) [Compound 21, 1-(2-(2-(5-Chloro-2-(1-(1-methylpyrrolidin-3-yl)-1H-pyrazol-4-ylamino)pyrimidin-4-yl)ethyl)phenyl)cyclopropanecarboxamide]	–	73 nM	7 nM	14 nM
CC(C(N)=O)c1ccccc1CCc1nc(Nc2cn[nH]c2)ncc1Cl (stereo not drawn) [Compound 35, 2-(2-(2-(2-(1H-Pyrazol-4-ylamino)-5-chloropyrimidin-4-yl)ethyl)phenyl)propanamide]	–	3790 nM	9 nM	64 nM
CC(C(N)=O)c1ccccc1CCc1nc(Nc2cnn(C)c2)ncc1Cl (stereo not drawn) [Compound 36, 2-(2-(2-(5-Chloro-2-(1-methyl-1H-pyrazol-4-ylamino)pyrimidin-4-yl)ethyl)phenyl) propanamide]	–	8170 nM	16 nM	76 nM
CC(C(N)=O)c1ccccc1CCc1nc(Nc2cnn(C3CCN(C)CC3)c2)ncc1Cl (stereo not drawn) [Compound 44, 2-(2-(2-(5-Chloro-2-(1-(1-methylpiperidin-4-yl)-1H-pyrazol-4-ylamino)pyrimidin-4-yl)ethyl)phenyl)propanamide]	–	138 nM	9 nM	52 nM
Cn1cc(Nc2ncc(Cl)c(CCc3ccccc3C(C)(C)C(N)=O)n2)cn1 [Compound 45, 2-(2-(2-(5-Chloro-2-((1-methyl-1H-pyrazol-4-yl)amino)pyrimidin-4-yl)ethyl)phenyl)-2-methylpropanamide]	–	370 nM	3 nM	23 nM
CC(C(N)=O)c1ccccc1CCc1nc(Nc2cnn(C)c2)ncc1C(F)(F)F (stereo not drawn) [Compound 55, 2-(2-(2-(2-((1-Methyl-1H-pyrazol-4-yl)amino)-5-(trifluoromethyl)pyrimidin-4-yl)ethyl)phenyl) propanamide]	115 nM	–	15 nM	–
NC(=O)C1(c2ccccc2CCc2nc(Nc3ccc(C4CCNCC4)nc3)ncc2C(F)(F)F)CC1 [Compound 68, 1-(2-(2-(2-((6-(Piperidin-4-yl)pyridin-3-yl)amino)-5-(trifluoromethyl)pyrimidin-4-yl)ethyl)phenyl)cyclopropanecarboxamide]	–	4080 nM	28 nM	51 nM

From patent publication US20160009686A1, “VEGFR3 INHIBITORS” (CANCER THERAPEUTICS CRC PTY LIMITED, priority 2012, published 2016)
